Laboratory results from patent US20260285863A1, “COMPOUNDS CAPABLE OF MODULATING GPR65” (Pathios Therapeutics Limited, priority 2023, published 2026).

Target: T1, human recombinant GPR65 (Homo sapiens, UniProt Q8IYL9)
T1 construct: host or cells: 1321N1 human astrocytoma cells (1321N1-hrGPR65)
Test: Human GPR65 cAMP HTRF antagonist assay
Format: cell-based
Settings: 1321N1-hrGPR65 cells, assay pH 7.2, cAMP HTRF; read-out: hGPR65 IC50
In short: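 1321N1 cells stably expressing human GPR65 were preincubated 30 min at room temperature with compound in KRH pH 7.6 containing 1 mM IBMX and 200 μM EDTA. They were then acid-stimulated to pH 7.2 for 30 min, with pH 7.9 as control. cAMP was read by HTRF (665/620 ratio), and IC50 came from normalised 4-parameter logistic fits.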

T1 sequence (Q8IYL9 whole entry): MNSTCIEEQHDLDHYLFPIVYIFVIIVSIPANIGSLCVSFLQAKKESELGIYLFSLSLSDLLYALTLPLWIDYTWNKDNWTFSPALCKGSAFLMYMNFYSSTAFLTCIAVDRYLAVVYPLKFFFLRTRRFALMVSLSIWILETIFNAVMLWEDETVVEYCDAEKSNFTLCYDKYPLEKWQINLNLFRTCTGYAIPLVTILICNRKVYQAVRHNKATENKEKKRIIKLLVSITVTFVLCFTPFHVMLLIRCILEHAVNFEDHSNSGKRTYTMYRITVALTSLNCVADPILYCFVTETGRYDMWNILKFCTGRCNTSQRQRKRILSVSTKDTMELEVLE

SMILES | IC50 [nM]
Cc1cc(-c2cc(F)c(NC(=O)N3[C@H]4CC[C@@H]3c3c[nH]c(=O)cc3C4)cc2Cl)cc2nsnc12 [Compound 24, (6S,9R)-N-(5-chloro-2-fluoro-4-(7-methylbenzo[c][1,2,5]thiadiazol-5-yl)phenyl)-3-oxo-3,5,6,7,8,9-hexahydro-2H-6,9-epiminocyclohepta[c]pyridine-10-carboxamide] | < 500
Cc1cc(NC(=O)N2[C@H]3CC[C@@H]2c2c[nH]c(=O)cc2C3)c(F)cc1-c1ccc2nsnc2c1 [Compound 17, (6S,9R)-N-(4-(benzo[c][1,2,5]thiadiazol-5-yl)-2-fluoro-5-methylphenyl)-3-oxo-3,5,6,7,8,9-hexahydro-2H-6,9-epiminocyclohepta[c]pyridine-10-carboxamide] | < 500
O=C(Nc1cc(Cl)c(-c2ccc(OCC3(F)CC3)nc2)cc1F)N1[C@H]2CC[C@@H]1c1n[nH]c(=O)cc1C2 [Compound 86, (6S,9R)-N-(5-Chloro-2-fluoro-4-(6-((1-fluorocyclopropyl)methoxy)pyridin-3-yl)phenyl)-3-oxo-3,5,6,7,8,9-hexahydro-2H-6,9-epiminocyclohepta[c]pyridazine-10-carboxamide] | < 500
O=C(Nc1cc(Cl)c(-c2ccc(OCC(F)(F)F)nc2)cc1F)N1C2CCC1C(F)(F)c1c2ccnc1F (racemic) [Compound 70, (±)-N-(5-Chloro-2-fluoro-4-(6-(2,2,2-trifluoroethoxy)pyridin-3-yl)phenyl)-1,9,9-trifluoro-6,7,8,9-tetrahydro-5H-5,8-epiminocyclohepta[c]pyridine-10-carboxamide] | < 500
O=C(Nc1cc(Cl)c(COc2ccc(OC3CCCC3)cn2)cc1F)N1[C@H]2CC[C@@H]1c1c[nH]c(=O)cc1C2 [Compound 58, (6S,9R)-N-(5-chloro-4-(((5-(cyclopentyloxy)pyridin-2-yl)oxy)methyl)-2-fluorophenyl)-3-oxo-3,5,6,7,8,9-hexahydro-2H-6,9-epiminocyclohepta[c]pyridine-10-carboxamide] | < 500
O=C(Nc1cc(Cl)c(-c2ccc(OC3CCS(=O)(=O)CC3)nc2)cc1F)N1[C@H]2CC[C@@H]1c1n[nH]c(=O)cc1C2 [Compound 87, (6S,9R)-N-(5-Chloro-4-(6-((1,1-dioxidotetrahydro-2H-thiopyran-4-yl)oxy)pyridine-3-yl)-2-fluorophenyl)-3-oxo-3,5,6,7,8,9-hexahydro-2H-6,9-epiminocyclohepta[c]pyridazine-10-carboxamide] | < 500
CN(CC(F)(F)F)c1cc(-c2cc(F)c(NC(=O)N3[C@H]4CC[C@@H]3c3c[nH]c(=O)cc3C4)cc2Cl)ccn1 [Compound 43, (6S,9R)-N-(5-chloro-2-fluoro-4-(2-(methyl(2,2,2-trifluoroethyl)amino)pyridin-4-yl)phenyl)-3-oxo-3,5,6,7,8,9-hexahydro-2H-6,9-epiminocyclohepta[c]pyridine-10-carboxamide] | < 500
O=C(Nc1cc(Cl)c(-c2ccc3nonc3c2)cn1)N1[C@@H]2CC[C@H]1[C@@H](F)c1c2ccnc1F [Compound 76, (5R,8S,9S)-N-(5-(Benzo[c][1,2,5]oxadiazol-5-yl)-4-chloropyridin-2-yl)-1,9-difluoro-6,7,8,9-tetrahydro-5H-5,8-epiminocyclohepta[c]pyridine-10-carboxamide] | < 500
O=C(Nc1cc(Cl)c(COc2ccc(OCC(F)(F)F)cn2)cc1F)N1[C@H]2CC[C@@H]1c1c[nH]c(=O)cc1C2 [Compound 54, (6S,9R)-N-(5-chloro-2-fluoro-4-(((5-(2,2,2-trifluoroethoxy)pyridin-2-yl)oxy)methyl)phenyl)-3-oxo-3,5,6,7,8,9-hexahydro-2H-6,9-epiminocyclohepta[c]pyridine-10-carboxamide] | < 500
CC(C)(C)OC(=O)N1CCC(Oc2ccc(-c3cc(F)c(NC(=O)N4[C@H]5CC[C@@H]4c4c[nH]c(=O)cc4C5)cc3Cl)cn2)C1 (stereo partly drawn) [Compound 25, tert-Butyl 3-((5-(2-chloro-5-fluoro-4-((6S,9R)-3-oxo-3,5,6,7,8,9-hexahydro-2H-6,9-epiminocyclohepta[c]pyridine-10-carboxamido)phenyl)pyridin-2-yl)oxy)pyrrolidine-1-carboxylate] | < 500
O=C(Nc1cc(Cl)c(COc2cccc(OCC(F)(F)F)n2)cc1F)N1[C@H]2CC[C@@H]1c1n[nH]c(=O)cc1C2 [Compound 56, (6S,9R)-N-(5-chloro-2-fluoro-4-(((6-(2,2,2-trifluoroethoxy)pyridin-2-yl)oxy)methyl)phenyl)-3-oxo-3,5,6,7,8,9-hexahydro-2H-6,9-epiminocyclohepta[c]pyridazine-10-carboxamide] | < 500
O=C(Nc1cc(Cl)c(C(F)(F)F)cn1)N1C2CCC1C(F)(F)c1c2ccnc1F (racemic) [Compound 34, (±)-N-(4-chloro-5-(trifluoromethyl)pyridin-2-yl)-1,9,9-trifluoro-6,7,8,9-tetrahydro-5H-5,8-epiminocyclohepta[c]pyridine-10-carboxamide] | < 500
CN1CCC(Oc2ccc(-c3cc(F)c(NC(=O)N4[C@H]5CC[C@@H]4c4c[nH]c(=O)cc4C5)cc3Cl)cn2)C1 (stereo partly shown) [Compound 62] | 500 to 5000
O=C(Nc1cc(Cl)c(Cl)cc1OCC1(F)CC1)N1[C@H]2CC[C@@H]1c1n[nH]c(=O)cc1C2 [Compound 89, (6S,9R)-N-(4,5-Dichloro-2-((1-fluorocyclopropyl)methoxy)phenyl)-3-oxo-3,5,6,7,8,9-hexahydro-2H-6,9-epiminocyclohepta[c]pyridazine-10-carboxamide] | > 5000
O=C(Nc1cc(Cl)c(-c2ccc3nonc3c2)cn1)N1[C@@H]2CC[C@H]1c1ccnc(F)c1[C@H]2F [Compound 75, (5S,8R,9R)-N-(5-(Benzo[c][1,2,5]oxadiazol-5-yl)-4-chloropyridin-2-yl)-1,9-difluoro-6,7,8,9-tetrahydro-5H-5,8-epiminocyclohepta[c]pyridine-10-carboxamide] | < 500
O=C1c2ccc(NC(=O)N3[C@H]4CC[C@@H]3c3n[nH]c(=O)cc3C4)cc2C(=O)N1c1ccc(OCC(F)(F)F)nc1 [Compound 91, (6S,9R)-N-(1,3-Dioxo-2-(6-(2,2,2-trifluoroethoxy)pyridin-3-yl)isoindolin-5-yl)-3-oxo-3,5,6,7,8,9-hexahydro-2H-6,9-epiminocyclohepta[c]pyridazine-10-carboxamide] | 500 to 5000
O=C(Nc1cc(Cl)c(-c2ccc(OC[C@H]3CCOC3)nc2)cc1F)N1[C@H]2CC[C@@H]1c1c[nH]c(=O)cc1C2 (single isomer, unassigned) [Compound 48] | < 500
O=C(Nc1cc(Cl)c(-c2ccc(OCC3CCC3)nc2)cc1F)N1[C@H]2CC[C@@H]1c1n[nH]c(=O)cc1C2 [Compound 20, (6S,9R)-N-(5-chloro-4-(6-(cyclobutylmethoxy)pyridin-3-yl)-2-fluorophenyl)-3-oxo-3,5,6,7,8,9-hexahydro-2H-6,9-epiminocyclohepta[c]pyridazine-10-carboxamide] | < 500
O=C(Nc1cc(Cl)c(-c2ccc(OC(C(F)F)C(F)F)nc2)cc1F)N1[C@H]2CC[C@@H]1c1c[nH]c(=O)cc1C2 [Compound 13, (6S,9R)-N-(5-chloro-2-fluoro-4-(6-((1,1,3,3-tetrafluoropropan-2-yl)oxy)pyridin-3-yl)phenyl)-3-oxo-3,5,6,7,8,9-hexahydro-2H-6,9-epiminocyclohepta[c]pyridine-10-carboxamide] | < 500
